Here are results for seven compounds from ChEMBL document CHEMBL1201862, “PubChem BioAssay data set” (2004).

“And” between values parts separate entries of the source, which are not always exact repeats. Equal entries are not always repeated.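 Assay format: 96-well plates, 48-hour exposure. Abbreviation: GI50, concentration required for 50% inhibition of growth.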 The source made the active and inactive calls. No stated cut-off is given here; in the data, active = GI50 up to about 1.1 µM and inactive = higher.

Some test systems named below: KM12; Malme-3M; NCI-H226; RXF 393; Hs-578T; 786-0; SF-268; NCI-H460; PC-3; SR; MOLT-4; SK-MEL-5; UO-31; EKVX; HOP-92; UACC-62; BT-549; LOX IMVI; HCT-15; OVCAR-3.
What all share (test): NCI anticancer screen, dose series, 48 h

As for `CC(Cc1ccc(O)c(O)c1)C(C)Cc1ccc(O)c(O)c1` (stereo not given) [NORDIHYDROGUAIARETIC ACID], the GI50 was 17.1 µM (inactive) in the assay on KM12; 15.9 µM (inactive) with Malme-3M; 22.5 µM (inactive) with NCI-H226; 13.6 µM (inactive) with RXF 393; 16.9 µM (inactive) with Hs-578T; 17.2 µM (inactive) in the assay on 786-0. Moreover, the GI50 in the assay with SF-268 was 16.3 µM (inactive); in the assay on NCI-H460 it was 16.7 µM (inactive); in the assay with PC-3, 21.9 µM (inactive); in the assay on SR it was 9.79 µM (inactive); in the assay with MOLT-4, 8.22 µM (inactive); in the assay on SK-MEL-5 it was 16.8 µM (inactive). In addition, the GI50 in the assay with UO-31 was 9.55 µM (inactive); with EKVX, 23.4 µM (inactive); in the assay with HOP-92, 3.14 µM (inactive); in the assay with UACC-62, 16 µM (inactive); in the assay with BT-549, 13.9 µM (inactive); in the assay on LOX IMVI, 17.4 µM (inactive). Besides, the GI50 in the assay on HCT-15 was > 38.9 µM; in the assay on OVCAR-3 it was 13.7 µM (inactive).
Take `C1CSCCCSCCCSCCCSCCCSC1`: the GI50 in the assay with KM12 is 25.4 µM (inactive); in the assay on Malme-3M, 33.3 µM (inactive); with NCI-H226 it was 25.5 µM (inactive); in the assay with RXF 393, 42.9 µM (inactive); in the assay with Hs-578T, 44.8 µM (inactive); with 786-0 it was 40.2 µM (inactive). Also, the GI50 is 33.1 µM (inactive) in the assay on SF-268; 14.4 µM (inactive) with NCI-H460; 19 µM (inactive) in the assay with PC-3; 11.4 µM (inactive) in the assay with SR; 9.82 µM (inactive) in the assay on MOLT-4; 14.2 µM (inactive) in the assay on SK-MEL-5. Further, the GI50 in the assay with UO-31 was 26.8 µM (inactive); with EKVX it was 24.5 µM (inactive); in the assay with HOP-92, 24.1 µM (inactive); in the assay with UACC-62 it was 44.6 µM (inactive); with BT-549, 33.8 µM (inactive); in the assay on LOX IMVI, 17.4 µM (inactive). In addition, the GI50 was 40.6 µM in the assay with HCT-15 and 28.6 µM (inactive) in the assay with OVCAR-3.
Turning to `CN(N=O)c1ccc(/C=C/c2ccnc3ccccc23)cc1`, the GI50 is 93.5 µM (inactive) in the assay with KM12; 86.3 µM (inactive) in the assay on Malme-3M; 47.8 µM (inactive) with NCI-H226; 46.6 µM (inactive) in the assay with RXF 393; > 100 µM (inactive) in the assay on Hs-578T; 46.5 µM (inactive) in the assay on 786-0. The GI50 is 79.8 µM (inactive) in the assay on SF-268; 34.2 µM (inactive) in the assay with NCI-H460; 76.4 µM (inactive) in the assay with PC-3; 31.8 µM (inactive) with SR; 34 µM (inactive) in the assay on MOLT-4; 37.1 µM (inactive) with SK-MEL-5. In addition, the GI50 in the assay on UO-31 was 30.4 µM (inactive); with EKVX, 26.4 µM (inactive); in the assay with HOP-92 it was > 100 µM (inactive); with UACC-62, 50.7 µM (inactive); in the assay on BT-549, > 100 µM (inactive); in the assay with LOX IMVI it was 36.3 µM (inactive). Further, the GI50 in the assay with HCT-15 was 54.2 µM; with OVCAR-3 it was 95.1 µM (inactive).
Regarding `N/C(=N\N=C\c1c[nH]c2ccccc12)Nc1ccccc1`, the GI50 with KM12 is 0.153 µM (active); in the assay with Malme-3M, 0.215 µM (active); with NCI-H226 it was 1.74 µM (inactive); in the assay on RXF 393, 0.156 µM (active); with Hs-578T it was 0.14 µM (active); in the assay on 786-0 it was 0.318 µM (active). The GI50 is 0.573 µM (active) in the assay on SF-268; 0.251 µM (active) in the assay on NCI-H460; 0.201 µM (active) in the assay on PC-3; 0.955 µM (active) with SR; 0.938 µM (active) in the assay with MOLT-4; 0.176 µM (active) in the assay on SK-MEL-5. The GI50 in the assay with UO-31 is 0.721 µM (active); in the assay with EKVX it was 2.92 µM (inactive); with HOP-92, 0.392 µM (active); in the assay on UACC-62, 0.248 µM (active); with BT-549, 0.527 µM (active); in the assay with LOX IMVI it was 0.36 µM (active). The GI50 in the assay on HCT-15 was 0.318 µM; with OVCAR-3, 0.134 µM (active).
With `N=C(N)c1ccc(/N=N\c2c(O)c(C(=O)Nc3ccccc3)cc3ccccc23)cc1`, the GI50 in the assay on KM12 is 16.4 µM (inactive); with Malme-3M it was 32.1 µM (inactive); in the assay with NCI-H226, 34.8 µM (inactive); in the assay with RXF 393, > 43.4 µM (inactive); in the assay with Hs-578T it was 27.3 µM (inactive); in the assay on 786-0, 10.8 µM (inactive). Further, the GI50 in the assay on SF-268 is 19.9 µM (inactive); in the assay with NCI-H460 it was 24.8 µM (inactive); in the assay on PC-3 it was 17.9 µM (inactive); in the assay on SR, 7.89 µM (inactive); with MOLT-4, 2.58 µM (inactive); with SK-MEL-5, 22.4 µM (inactive). Besides, the GI50 in the assay with UO-31 was 75.5 µM (inactive); in the assay on EKVX, 17 µM (inactive); in the assay with HOP-92, 16.4 µM (inactive); in the assay on UACC-62 it was > 87.5 µM (inactive); in the assay with BT-549 it was 46 µM (inactive); with LOX IMVI it was 2.02 µM (inactive). Further, the GI50 is 18.1 µM with HCT-15 and 32.7 µM (inactive) in the assay with OVCAR-3.
With `COC(=O)C1OC(O[C@H]2CC[C@]3(C)[C@H]4CC=C5[C@@H]6CC(C)(C)CC[C@]6(C(=O)OC6OCC(O)C(O)C6OC6OC(C)C(OC7OCC(O)C(O)C7O)C(O)C6O)CC[C@@]5(C)[C@]4(C)CC[C@H]3C2(C)C)C(O)C(O)C1O` (stereo not given in full), the GI50 in the assay with KM12 was 15.6 µM (inactive) and 16.2 µM (inactive); in the assay with Malme-3M, 15.5 µM (inactive) and 18.4 µM (inactive); in the assay with NCI-H226 it was 19.7 µM (inactive) and 20.8 µM (inactive); with RXF 393, 21.1 µM (inactive) and 19.5 µM (inactive); in the assay on Hs-578T it was 18.2 µM (inactive) and 20.6 µM (inactive); in the assay on 786-0 it was 15.7 µM (inactive) and 17.5 µM (inactive). Moreover, the GI50 was 17.3 µM (inactive) and 19.6 µM (inactive) in the assay with SF-268; 34.5 µM (inactive) and 20 µM (inactive) in the assay with NCI-H460; 14.4 µM (inactive) and 15.8 µM (inactive) in the assay on PC-3; 13.1 µM (inactive) and 10.2 µM (inactive) in the assay with SR; 19.3 µM (inactive) and 18.1 µM (inactive) in the assay on MOLT-4; 17.9 µM (inactive) and 17.8 µM (inactive) with SK-MEL-5. Moreover, the GI50 in the assay on UO-31 was 13.2 µM (inactive) and 18.9 µM (inactive); in the assay with EKVX it was 17.1 µM (inactive); in the assay on HOP-92, 16.4 µM (inactive) and 19.9 µM (inactive); with UACC-62, 18 µM (inactive) and 18.2 µM (inactive); with BT-549 it was 18.7 µM (inactive) and 19.9 µM (inactive); in the assay on LOX IMVI, 16.4 µM (inactive) and 14.6 µM (inactive). Further, the GI50 with HCT-15 is 26.9 µM and 28.8 µM; in the assay on OVCAR-3, 39.5 µM (inactive) and 42.8 µM (inactive).
For the compound `CC(CCC(=O)O)C(=O)O` (stereo not given), the GI50 in the assay on KM12, with Malme-3M, in the assay with NCI-H226, in the assay on RXF 393, with Hs-578T and in the assay on 786-0 was > 100 µM (inactive) in each case. Besides, the GI50 in the assay with SF-268, in the assay with NCI-H460, in the assay with PC-3, in the assay on SR, in the assay with MOLT-4 and with SK-MEL-5 was > 100 µM (inactive) each time. For the same compound, the GI50 in the assay with UO-31, with EKVX, in the assay on HOP-92, with UACC-62, in the assay on BT-549 and in the assay on LOX IMVI was > 100 µM (inactive) each time. For the same compound, the GI50 is > 100 µM with HCT-15 and > 100 µM (inactive) in the assay with OVCAR-3.
